Assay results taken from ChEMBL document CHEMBL1201862, “PubChem BioAssay data set” (2004).
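Results reflect a 48-hour exposure of cells in 96-well plates to compound at five concentrations. At the GI50, growth is halved.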 The source made the active and inactive calls. Rule as the data show it: active = GI50 up to about 1.1 µM and inactive = higher.

What was measured:
Test in all cases: inhibition of tumour cell growth, NCI panel, 48 h
MDA-MB-231 = tested on: MDA-MB-231
U-251 = tested on: U-251
NCI-H23 = tested on: NCI-H23
HCT-116 = tested on: HCT-116
SF-268 = tested on: SF-268
HCC 2998 = tested on: HCC 2998
DU-145 = tested on: DU-145
SK-MEL-28 = tested on: SK-MEL-28
OVCAR-3 = tested on: OVCAR-3
CAKI-1 = tested on: CAKI-1
TK-10 = tested on: TK-10
SK-MEL-5 = tested on: SK-MEL-5
KM12 = tested on: KM12
SNB-19 = tested on: SNB-19
HL-60 = tested on: HL-60
CCRF-CEM = tested on: CCRF-CEM
OVCAR-4 = tested on: OVCAR-4
MOLT-4 = tested on: MOLT-4
T47D = tested on: T47D
OVCAR-8 = tested on: OVCAR-8

O=C1NC(=S)N/C1=C\c1ccc(Br)s1
GI50 (MDA-MB-231): > 100 µM (inactive) | GI50 (U-251): > 100 µM (inactive) | GI50 (NCI-H23): > 100 µM (inactive) | GI50 (HCT-116): > 100 µM (inactive) | GI50 (SF-268): > 100 µM (inactive) | GI50 (HCC 2998): 57.8 µM (inactive) | GI50 (DU-145): > 100 µM (inactive) | GI50 (SK-MEL-28): > 100 µM (inactive) | GI50 (OVCAR-3): 71.8 µM (inactive) | GI50 (CAKI-1): 70.6 µM (inactive) | GI50 (TK-10): 52 µM (inactive) | GI50 (SK-MEL-5): 39.8 µM (inactive) | GI50 (KM12): > 100 µM (inactive) | GI50 (SNB-19): 90.2 µM (inactive) | GI50 (HL-60): 0.861 µM (active) | GI50 (CCRF-CEM): 25.3 µM (inactive) | GI50 (OVCAR-4): 53.1 µM (inactive) | GI50 (MOLT-4): 21.4 µM (inactive)

O=[N+]([O-])c1ccc(N2N=C(c3ccc4ccccc4c3O)CC2c2ccc(Cl)cc2)c([N+](=O)[O-])c1 (centres undefined)
GI50 (MDA-MB-231): 20.5 µM (inactive) | GI50 (U-251): 25.9 µM (inactive) | GI50 (NCI-H23): > 100 µM (inactive) | GI50 (HCT-116): 28 µM (inactive) | GI50 (SF-268): 45.7 µM (inactive) | GI50 (HCC 2998): 46.5 µM (inactive) | GI50 (DU-145): 48.8 µM (inactive) | GI50 (SK-MEL-28): 41.8 µM (inactive) | GI50 (OVCAR-3): 24.8 µM (inactive) | GI50 (CAKI-1): > 100 µM (inactive) | GI50 (TK-10): 53.1 µM (inactive) | GI50 (SK-MEL-5): 22.2 µM (inactive) | GI50 (T47D): 51.4 µM (inactive) | GI50 (KM12): 21.8 µM (inactive) | GI50 (CCRF-CEM): 14.2 µM (inactive) | GI50 (OVCAR-8): 37.3 µM (inactive) | GI50 (OVCAR-4): 55.1 µM (inactive) | GI50 (MOLT-4): 17 µM (inactive)

O=C(NNC(=O)c1ccccc1Cl)c1ccccc1O
GI50 (MDA-MB-231): > 100 µM (inactive) | GI50 (U-251): > 100 µM (inactive) | GI50 (HCT-116): 35.8 µM (inactive) | GI50 (SF-268): 10.6 µM (inactive) | GI50 (DU-145): > 100 µM (inactive) | GI50 (SK-MEL-28): > 100 µM (inactive) | GI50 (OVCAR-3): 25.2 µM (inactive) | GI50 (CAKI-1): 41.3 µM (inactive) | GI50 (TK-10): > 100 µM (inactive) | GI50 (SK-MEL-5): > 100 µM (inactive) | GI50 (T47D): > 100 µM (inactive) | GI50 (KM12): 20.1 µM (inactive) | GI50 (SNB-19): > 100 µM (inactive) | GI50 (CCRF-CEM): 44.1 µM (inactive) | GI50 (OVCAR-8): 19.8 µM (inactive) | GI50 (OVCAR-4): > 100 µM (inactive) | GI50 (MOLT-4): 57.1 µM (inactive)

Cc1nnc2sc(Cl)nn12
GI50 (MDA-MB-231): 22.1 µM (inactive) | GI50 (U-251): 16.4 µM (inactive) | GI50 (NCI-H23): 17.3 µM (inactive) | GI50 (HCT-116): 8.95 µM (inactive) | GI50 (HCC 2998): 15.5 µM (inactive) | GI50 (DU-145): 34.4 µM (inactive) | GI50 (SK-MEL-28): 19.4 µM (inactive) | GI50 (OVCAR-3): 19 µM (inactive) | GI50 (CAKI-1): 21 µM (inactive) | GI50 (TK-10): 27.7 µM (inactive) | GI50 (SK-MEL-5): 12.6 µM (inactive) | GI50 (T47D): 22.9 µM (inactive) | GI50 (KM12): 14.5 µM (inactive) | GI50 (SNB-19): 44.8 µM (inactive) | GI50 (CCRF-CEM): 3.85 µM (inactive) | GI50 (OVCAR-8): 32.9 µM (inactive) | GI50 (OVCAR-4): 16.8 µM (inactive) | GI50 (MOLT-4): 5.65 µM (inactive)

CC(=O)c1c2c(cc3c1CC1(Cc4cc5c(cc4C1)CCCC5)C3)CCCC2
GI50 (MDA-MB-231): > 100 µM (inactive) | GI50 (U-251): > 100 µM (inactive) | GI50 (NCI-H23): 68.5 µM (inactive) | GI50 (HCT-116): > 100 µM (inactive) | GI50 (HCC 2998): > 100 µM (inactive) | GI50 (OVCAR-3): 27.2 µM (inactive) | GI50 (TK-10): > 100 µM (inactive) | GI50 (SK-MEL-5): 10.3 µM (inactive) | GI50 (T47D): > 100 µM (inactive) | GI50 (KM12): > 100 µM (inactive) | GI50 (HL-60): 7.85 µM (inactive) | GI50 (OVCAR-8): > 100 µM (inactive) | GI50 (OVCAR-4): 8.39 µM (inactive) | GI50 (MOLT-4): 12.1 µM (inactive)

O=C1NC(=S)NC(=O)C1C(c1ccc(Cl)cc1)C1C(=O)NC(=S)NC1=O.c1ccncc1
GI50 (MDA-MB-231): > 100 µM (inactive) | GI50 (U-251): > 100 µM (inactive) | GI50 (NCI-H23): > 100 µM (inactive) | GI50 (HCT-116): > 100 µM (inactive) | GI50 (DU-145): > 100 µM (inactive) | GI50 (SK-MEL-28): > 100 µM (inactive) | GI50 (OVCAR-3): > 100 µM (inactive) | GI50 (CAKI-1): > 100 µM (inactive) | GI50 (TK-10): > 100 µM (inactive) | GI50 (SK-MEL-5): > 100 µM (inactive) | GI50 (T47D): > 100 µM (inactive) | GI50 (KM12): > 100 µM (inactive) | GI50 (SNB-19): > 100 µM (inactive) | GI50 (HL-60): > 100 µM (inactive) | GI50 (CCRF-CEM): > 100 µM (inactive) | GI50 (OVCAR-8): > 100 µM (inactive) | GI50 (OVCAR-4): > 100 µM (inactive) | GI50 (MOLT-4): > 100 µM (inactive)

CC(C)(C)OC(=O)NCCCCC(NC(=O)c1ccccc1)C(N)=O (centres undefined)
GI50 (MDA-MB-231): > 100 µM (inactive) | GI50 (U-251): > 100 µM (inactive) | GI50 (NCI-H23): > 100 µM (inactive) | GI50 (HCT-116): > 100 µM (inactive) | GI50 (SF-268): > 100 µM (inactive) | GI50 (DU-145): > 100 µM (inactive) | GI50 (SK-MEL-28): > 100 µM (inactive) | GI50 (OVCAR-3): > 100 µM (inactive) | GI50 (CAKI-1): > 100 µM (inactive) | GI50 (TK-10): > 100 µM (inactive) | GI50 (SK-MEL-5): > 100 µM (inactive) | GI50 (T47D): > 100 µM (inactive) | GI50 (KM12): > 100 µM (inactive) | GI50 (SNB-19): > 100 µM (inactive) | GI50 (CCRF-CEM): > 100 µM (inactive) | GI50 (OVCAR-8): > 100 µM (inactive) | GI50 (OVCAR-4): > 100 µM (inactive) | GI50 (MOLT-4): 46.6 µM (inactive)

CN(C)c1ccc(/C=c2/c3ccccc3n3nc4ccccc4c23)cc1
GI50 (MDA-MB-231): 47 µM (inactive) | GI50 (U-251): 22.6 µM (inactive) | GI50 (NCI-H23): 95.7 µM (inactive) | GI50 (HCT-116): 16.8 µM (inactive) | GI50 (SF-268): 36.3 µM (inactive) | GI50 (DU-145): 75.5 µM (inactive) | GI50 (SK-MEL-28): 34.9 µM (inactive) | GI50 (OVCAR-3): 28.2 µM (inactive) | GI50 (CAKI-1): 28.7 µM (inactive) | GI50 (TK-10): > 100 µM (inactive) | GI50 (SK-MEL-5): 8.73 µM (inactive) | GI50 (T47D): 6.47 µM (inactive) | GI50 (KM12): 30.7 µM (inactive) | GI50 (SNB-19): 76.9 µM (inactive) | GI50 (HL-60): 21.2 µM (inactive) | GI50 (CCRF-CEM): 7.98 µM (inactive) | GI50 (OVCAR-8): 39.8 µM (inactive) | GI50 (MOLT-4): 17 µM (inactive)
